Test results taken from US7038085B2, “Stereoisomers of p-hydroxy-milnacipran, and methods of use thereof” (Collegium Pharmaceutical, Inc., priority 2002, dated 2006).

Tests used:
[1] = test system: norepinephrine (NE) and serotonin (5-HT) uptake; conditions: Viazzo et al. 1996; Deprez et al. 1998; cited from earlier work
[2] = target: T1, Norepinephrine Transporter (NET) (Homo sapiens, UniProt P23975); assay: Transporter, Norepinephrine (NET) radioligand binding (cat. 204410); conditions: for Ki: human recombinant MDCK cells, [125I] RTI-55, Ki by Cheng and Prusoff, read-out: Ki, displacement of radioligand from Norepinephrine Transporter binding sites
T1 sequence (P23975 whole entry): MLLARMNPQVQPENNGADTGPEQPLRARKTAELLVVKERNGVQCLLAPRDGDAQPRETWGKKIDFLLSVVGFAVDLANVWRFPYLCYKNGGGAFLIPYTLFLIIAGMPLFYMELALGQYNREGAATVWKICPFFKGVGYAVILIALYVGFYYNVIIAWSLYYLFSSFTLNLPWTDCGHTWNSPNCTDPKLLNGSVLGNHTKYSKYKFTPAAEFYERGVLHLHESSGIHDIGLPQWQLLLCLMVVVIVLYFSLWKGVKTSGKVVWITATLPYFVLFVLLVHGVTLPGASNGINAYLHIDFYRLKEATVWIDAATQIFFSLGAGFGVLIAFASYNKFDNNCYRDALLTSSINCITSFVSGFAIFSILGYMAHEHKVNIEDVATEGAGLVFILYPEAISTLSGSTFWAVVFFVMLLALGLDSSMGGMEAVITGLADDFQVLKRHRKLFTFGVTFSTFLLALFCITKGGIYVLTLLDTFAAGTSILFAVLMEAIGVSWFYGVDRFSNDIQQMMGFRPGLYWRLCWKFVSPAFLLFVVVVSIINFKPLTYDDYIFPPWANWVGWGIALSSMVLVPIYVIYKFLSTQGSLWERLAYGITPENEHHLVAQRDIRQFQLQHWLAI
Experimental: (§1) The methods employed in this study have been adapted from the scientific literature to maximize reliability and reproducibility. Reference standards were run as an integral part of each assay to ensure the validity of the results obtained. Assays were performed under conditions as described below. Literature reference(s) for each assay are tabulated below and hereby incorporated by reference.
(§2) Where presented, IC50 values were determined by a non-linear, least squares regression analysis using Data Analysis ToolboX™ (MDL Information Systems, San Leandro, Calif., USA). Where inhibition constants (Ki) are presented, the Ki values were calculated using the equation of Cheng and Prusoff(Cheng, Y., Prusoff, W. H., Biochem. Pharmacol. 22:30993108, 1973) using the observed IC50 of the tested compound, the concentration of radioligand employed in the assay, and the historical values for the Kd of the ligand (obtained experimentally at MDS Pharma Services). Where presented, the Hill coefficient (nH), defining the slope of the competitive binding curve, was calculated using Data Analysis Toolbox™. […] Where IC50, Ki, and/or nH data are presented without Standard Error of the Mean (SEM), data are insufficient to be quantitative, and the values presented (Ki, IC50, nH) should be interpreted with caution.
(§3) Where presented, IC50 values were determined by a non-linear, least squares regression analysis using Data Analysis Toolbox™ (MDL Information Systems, San Leandro, Calif., USA). Where inhibition constants (Ki) are presented, the Ki values were calculated using the equation of Cheng and Prusoff (Cheng, Y., Prusoff, W. H., Biochem. Pharmacol. 22:3099–3108, 1973) using the observed IC50 of the tested compound, the concentration of radioligand employed in the assay, and the historical values for the KD of the ligand (obtained experimentally at MDS Pharma Sarvices.

[3] = target: T2, Serotonin Transporter (SERT) (Homo sapiens, UniProt P31645); assay: Transporter, Serotonin (5-Hydroxytryptamine) (SERT) radioligand binding (cat. 274020); conditions: for Ki: human recombinant HEK-293 cells, [125I] RTI-55, Ki by Cheng and Prusoff, read-out: Ki, displacement of radioligand from Serotonin Transporter binding sites
T2 sequence (P31645 whole entry): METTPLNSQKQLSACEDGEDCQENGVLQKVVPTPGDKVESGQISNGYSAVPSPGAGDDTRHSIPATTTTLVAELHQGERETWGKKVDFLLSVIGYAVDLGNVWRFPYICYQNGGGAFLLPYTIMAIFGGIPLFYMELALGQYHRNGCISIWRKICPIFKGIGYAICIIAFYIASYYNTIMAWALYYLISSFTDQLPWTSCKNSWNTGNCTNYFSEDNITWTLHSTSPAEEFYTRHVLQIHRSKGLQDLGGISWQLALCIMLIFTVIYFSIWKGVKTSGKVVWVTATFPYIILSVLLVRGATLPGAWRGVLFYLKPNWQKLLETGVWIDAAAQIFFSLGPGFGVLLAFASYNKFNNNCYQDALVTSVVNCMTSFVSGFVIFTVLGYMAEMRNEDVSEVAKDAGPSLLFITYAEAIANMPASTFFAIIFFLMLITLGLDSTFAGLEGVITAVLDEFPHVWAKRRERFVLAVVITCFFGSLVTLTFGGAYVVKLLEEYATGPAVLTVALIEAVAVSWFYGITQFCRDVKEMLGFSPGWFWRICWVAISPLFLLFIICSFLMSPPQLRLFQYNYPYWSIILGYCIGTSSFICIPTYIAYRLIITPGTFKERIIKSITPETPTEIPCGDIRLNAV
Experimental: as §1, §2, §3

[4] = target: Norepinephrine Uptake (Homo sapiens, UniProt P23975); assay: Inhibition of cellular Norepinephrine Uptake (cat. 302000); type: cell-based; conditions: for IC50: cellular uptake, FIG. 61
Norepinephrine Uptake, sequence (P23975 whole entry): as the sequence (P23975 whole entry) above
Experimental: (§4) The methods employed have been adapted from the scientific literature to maximize reliability and reproducibility. Reference standards were run as an integral part of each assay to ensure the validity of the results obtained. Assays were performed under the conditions described below. The literature reference(s) for each assay are are listed below.
as §3

[5] = target: Serotonin Uptake (Homo sapiens, UniProt P31645); assay: Inhibition of cellular Serotonin Uptake (cat. 364000); type: cell-based; conditions: for IC50: cellular uptake, FIG. 61
Serotonin Uptake, sequence (P31645 whole entry): as the sequence (P31645 whole entry) above
Experimental: as §4, §3

[6] = Cytotoxicity, fluorometric assay run with the uptake assays (cat. 302100, 364100); type: cell-based; conditions: at 10 μM
Source text: • 118090. Crespi, C. L., Miller, V. P and Penman, B. W. (1997) Microtiter plate assays for inhibition of human, drug-metabolizing cytochromes P450. Anal Biochem 248(1): 188–190. • Gentest Technical Bulletin (Version 4.2: Revised 27 Sep. 2000) A high throughput method for measuring cytochrome P450 inhibition. Gentest Technical Bulletin (Version 4.2) Revised 27 Sep. 2000). • 204410. Galli, A., DeFelice, L., Duke, B.-J., Moore, K. Blakely, R. (1995) Sodium dependent norepinephrine induced currents in norephinephrine transporter transfected HEK293 cells blocked by cocaine and antidepressants. J. Exp. Biol. 198:2197–2212. • 212610. Eggerickx, D., Raspe, E. Bertrand, D., Vassart, G., Parmentier, M. (1992) Molecular cloning, functional expression and pharmacological characterization of a human bradykinin B2 receptor gene. Biochem Biophys Res Commun 187 (3): 1306–1313. • 214510. Schoemaker, H. and Langer, S. Z. (1985) [3H]Diltiazem binding to calcium channel antagonist recognition sites in rat cerebral cortex. Eur. J. Pharmacol. 111:273–277. • 274020. […] J. Biol. Chem. 269(10):7124–7130. • 302000. Galli, A., DeFelice, L. Duke, B.-J., and Blakely, R. (1995) Sodium dependent norephinephrine-induced currents in norepinephrine-transporter-transfected HEK-293 cells blocked by cocaine and antidepressants. J. Exp. Biol. 198:2197–2212. • 302100. Page, B., Page, M. and Noel, C. (1993) A new fluorometric assay for cytotoxicity measurements in vitro. […] 3:473–476, 1993. • 364000. […] J. Biol. Chem. […]:7124–7130. • 364100. Page, B., Page, M. and Noel, C. (1993) A new fluorometric assay for cytotoxicity measurements in vitro. Int. J. Oncology 3:473–476, 1993.

[7] = test system: other receptors; assay: Radioligand binding assay panel, other receptors (FIGS. 32 and 33); design: species or system human, mouse, guinea pig, syrian hamster, rat; conditions: radioligand binding assays at 10 μM
Experimental: as §1

[8] = target: uptake of dopamine (Homo sapiens, UniProt Q01959); conditions: cited from earlier work
uptake of dopamine, sequence (Q01959 whole entry): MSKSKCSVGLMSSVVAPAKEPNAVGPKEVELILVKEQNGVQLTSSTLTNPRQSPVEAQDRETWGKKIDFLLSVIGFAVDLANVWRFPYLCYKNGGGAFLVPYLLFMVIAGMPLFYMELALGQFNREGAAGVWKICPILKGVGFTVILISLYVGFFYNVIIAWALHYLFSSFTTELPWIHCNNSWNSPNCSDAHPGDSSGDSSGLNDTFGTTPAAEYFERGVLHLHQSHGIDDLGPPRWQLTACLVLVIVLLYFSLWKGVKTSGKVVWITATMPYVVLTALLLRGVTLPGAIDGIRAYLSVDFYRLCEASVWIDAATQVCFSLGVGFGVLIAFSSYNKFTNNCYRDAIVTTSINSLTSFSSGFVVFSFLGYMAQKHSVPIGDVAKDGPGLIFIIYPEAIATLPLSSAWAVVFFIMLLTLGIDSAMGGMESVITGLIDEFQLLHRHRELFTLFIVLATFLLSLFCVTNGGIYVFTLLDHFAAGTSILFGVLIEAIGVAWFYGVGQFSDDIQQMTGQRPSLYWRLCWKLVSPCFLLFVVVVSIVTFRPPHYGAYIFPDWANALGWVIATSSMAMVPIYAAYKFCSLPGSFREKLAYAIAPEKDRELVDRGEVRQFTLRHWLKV

[9] = test system: alpha or beta adrenergic, muscarinic, histaminergic, and dopaminergic receptors; conditions: cited from earlier work
[10] = test system: beta adrenoceptors; conditions: after chronic administration; Briley et al. 1996; cited from earlier work
[11] = target: T1, Norepinephrine Transporter (NET); conditions: radioligand [125I] RTI-55; Human recombinant MDCK cells; historical value (*); cited from earlier work
[12] = target: T2, Serotonin Transporter (SERT); conditions: radioligand [125I] RTI-55; Human recombinant HEK-293 cells; historical value (*); cited from earlier work

Row | SMILES | Ki [2] [nM] | Ki [3] [nM] | IC50 [4] [nM] | IC50 [5] [nM] | cytotoxicity [6] | also measured
1 | CCN(CC)C(=O)[C@@]1(c2ccccc2)C[C@H]1CN [F2695, (+)-1S,2R-milnacipran] |  |  |  |  |  | activity in inhibiting norepinephrine and serotonin reuptake compared with the racemic mixture [1]: roughly twice
2 | CCN(CC)C(=O)C1(c2ccc(O)cc2)CC1CN (racemic) [CS1814, racemic 2-Aminomethyl-1-(4-hydroxy-phenyl)-cyclopropanecarboxylic acid diethyl amide] | 218 | 6.73 | 28.6 | 21.7 | no cytotoxicity was observed | IC50 ([2]; radioligand binding, FIG. 59, read-out: IC50 for inhibition of norepinephrine transporter): 220 nM; IC50 ([3]; radioligand binding, FIG. 59, read-out: IC50 for inhibition of serotonin transporter): 12.7 nM; potency of inhibition of norepinephrine uptake compared to inhibition of serotonin uptake [4]: approximately equal potency; binding to other receptors [7]: generally does not bind well to other receptors
3 | CCN(CC)C(=O)[C@@]1(c2ccccc2)C[C@H]1CN (racemic) [Milnacipran, milnacipran] |  |  |  |  |  | effect on the uptake of dopamine [8]: does not affect the uptake of dopamine; affinity for alpha or beta adrenergic, muscarinic, histaminergic, and dopaminergic receptors [9]: no affinity; effect on the number of beta adrenoceptors in rat cortex [10]: does not affect the number of beta adrenoceptors
4 | CCN(CC)C(=O)[C@]1(c2ccccc2)C[C@@H]1CN [F2696, (−)-1R,2S-milnacipran] |  |  |  |  |  | activity in inhibiting norepinephrine and serotonin reuptake compared with the racemic mixture [1]: much less potent
5 | CCN(CC)C(=O)[C@@]1(c2ccc(O)cc2)C[C@H]1CN [CS1713, 1S, 2R 2-Aminomethyl-1-(4-hydroxy-phenyl)-cyclopropanecarboxylic acid diethyl amide] | 112 | 3.88 | 10.3 | 22 | no cytotoxicity was observed | potency of inhibition of norepinephrine uptake compared to inhibition of serotonin uptake [4]: approximately two-fold
6 | CCN(CC)C(=O)[C@]1(c2ccc(O)cc2)C[C@@H]1CN.Cl [CS1714, 1R, 2S 2-Aminomethyl-1-(4-hydroxy-phenyl)-cyclopropanecarboxylic acid diethyl amide] | 1680 | 8.15 | 88.5 | 40.3 | no cytotoxicity was observed | potency of inhibition of serotonin uptake compared to inhibition of norepinephrine uptake [5]: approximately two-fold
7 | COC(=O)[C@H]1[C@@H](c2ccc(I)cc2)C[C@@H]2CC[C@H]1N2C [[^125I] RTI-55] |  |  |  |  |  | Kd [11]: 24 nM; Kd [12]: 0.17 nM
